Reference: patent publication US8853236B2, “Formulations containing clopidogrel and sulfoalkyl ether cyclodextrin and methods of use” (Cydex Pharmaceuticals, Inc., priority 2007, dated 2014)

Experiments:
[1] = in vivo; cited from earlier work
animals = conditions: in animals; cited from earlier work
[2] = Competitive binding study of clopidogrel bisulfate and aspirin with SAE-CD (Example 22); format: physicochemical; conditions: pH ~5.5
Procedure: In this example, excess clopidogrel bisulfate was added to solutions containing fixed amounts of SAE-CD and varying amounts of aspirin. FIG. 7 depicts the results of a competitive binding study. […] Thus, in a formulation containing both clopidogrel and aspirin, the formulation may or may not require additional SAE-CD to solubilize both ingredients than would be required to solubilize either component individually.
The competitive binding study was conducted using clopidogrel bisulphate and aspirin (ASA, acetyl salicylic acid). The work was conducted on an auto-titrator such that the pH was maintained at ˜5.5 using sodium hydroxide. The required amount of SBE-β-CD and aspirin was first solubilized in 0.2 μm Millipore filtered water then transferred to the auto-titrator.
After equilibration, the solutions were sampled and analyzed for clopidogrel content.

phosphodiesterase = conditions: cited from earlier work
[3] = pH 5.6, 37° C., 0.1M phosphate buffer; cited from earlier work
[4] = system: ADP-induced platelet aggregation; conditions: i.v., 0.1-300 mg clopidogrel
Procedure: The response was determined as percent of platelet aggregation inhibition following exposure of the subjects' plasma ex-vivo to ADP (5 μM).
Blood samples for determination of ADP-induced platelet aggregation inhibition using the impedance method (see Dyszkiewicz-Korpanty et al. above) were obtained from arm #2 (the arm not used for dosing) at baseline (check-in, Day −1), 15 and 30 minutes, and 2, 5, and 24 hours after dose initiation.
Maximum % platelet inhibition and area under the % platelet inhibition curve was calculated for each individual and summarized by treatment group

platelet aggregation = conditions: subjects who were non-responders to clopidogrel (10-300 mg) perorally

COC(=O)[C@@H](c1ccccc1Cl)N1CCc2sccc2C1 (single isomer, unassigned) [(R)-enantiomer of clopidogrel]
antithrombotic activity [1]: devoid of antithrombotic activity
convulsions (animals): can provoke convulsions

CC(=O)Oc1ccccc1C(=O)O [aspirin, acetyl salicylic acid]
binding with SAE-CD in a solution containing SAE-CD and clopidogrel salt [2]: binds competitively

COC(=O)[C@H](c1ccccc1Cl)N1CCc2sccc2C1.O=S(=O)(O)O [clopidogrel bisulfate, methyl (+)-(S)-α-(2-chlorophenyl)-6,7-dihydrothieno[3,2-c]pyridine-5(4H)-acetate sulfate (1:1)]
inhibition of phosphodiesterase activity (phosphodiesterase): does not inhibit
t90 toward hydrolysis [3]: about 52.7 days
time to onset of the therapeutic effect (platelet aggregation inhibition, 5 μM ADP ex vivo) [4]: ≤ 15 min
subjects deemed responders after parenteral administration (platelet aggregation): 9-25%
